Data reported in PubChem BioAssay (NCI).
“And” between values parts separate entries of the source, which are not always exact repeats. Equal values may be shown once.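 1) Cells in 96-well plates. 2) Compound, 48 h, 5 concentrations. 3) Linear interpolation between surrounding doses. 4) Unreached endpoint = highest concentration. GI50 is the concentration that inhibits growth by half. TGI is the concentration that stops growth completely.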 Where a SMILES comes first, the peptide text is derived from it. The star is where a group is joined. Boc = CC(C)(C)OC(=O)*; OSu = O=C1CCC(=O)N1O*

What was measured:
Assay in all cases: NCI anticancer screen, dose series, 48 h
DLD-1 colon = system: DLD-1 colon
DMS 114 small cell lung = system: DMS 114 small cell lung
KM20L2 colon = system: KM20L2 colon
LXFL 529 NSCLC = system: LXFL 529 NSCLC
RXF-631 renal = system: RXF-631 renal
XF 498 CNS = system: XF 498 CNS
RXF 393 renal = system: RXF 393 renal
SR leukemia = system: SR leukemia
DMS 273 small cell lung = system: DMS 273 small cell lung
M19-MEL melanoma = system: M19-MEL melanoma
HOP-18 NSCLC = system: HOP-18 NSCLC
SNB-78 CNS = system: SNB-78 CNS

COC1(C)CC2N(C(=O)c3ccccc3)N=C(c3ccccc3)CC2(C)O1 (centres undefined)
TGI (DLD-1 colon): > 100 µM | TGI (DMS 114 small cell lung): > 100 µM | TGI (KM20L2 colon): > 100 µM | TGI (LXFL 529 NSCLC): > 100 µM | TGI (RXF-631 renal): > 100 µM | TGI (XF 498 CNS): > 100 µM

CCCCN(CC)c1nc(C)nc2c1c(C)c(C)n2-c1c(C)cc(C)cc1C
TGI (RXF 393 renal): 19.7 µM | TGI (SR leukemia): 31.9 µM

CCCCc1c(O)nc(Nc2nc3ccccc3[nH]2)[nH]c1=O
TGI (RXF 393 renal): > 100 µM | TGI (SR leukemia): > 100 µM

COC(=O)c1cc(CC(C)C)c2c(c1)[nH]c1ccccc12
TGI (DLD-1 colon): > 100 µM | TGI (DMS 114 small cell lung): > 100 µM | TGI (DMS 273 small cell lung): > 100 µM | TGI (KM20L2 colon): > 100 µM | TGI (LXFL 529 NSCLC): > 100 µM | TGI (M19-MEL melanoma): > 100 µM | TGI (XF 498 CNS): > 100 µM

CO[C@@H](C(=O)OC1C=CC2(CC1)C(=O)N(C)c1ccccc12)c1ccccc1 (some centres undefined)
TGI (SR leukemia): > 100 µM

COC(=O)C1=C(C(=O)OC)C2OC1C1C2C2(C)C(C)=C(C)C1(C)S2=O (centres undefined)
TGI (RXF 393 renal): 10.6 µM

N#C/C(=C\NC(=S)Nc1ccc(S(=O)(=O)Nc2ccccn2)cc1)C(N)=O
TGI (RXF 393 renal): > 100 µM | TGI (SR leukemia): > 100 µM

O=C1CC(c2ccco2)C2(C(=O)NC(=O)NC2=O)C(c2ccco2)C1 (centres undefined)
TGI (RXF 393 renal): > 75 µM | TGI (SR leukemia): > 75 µM

COc1ccc(/C(=C/n2ccnc2)C(=O)c2ccc(OC)c(OC)c2)cc1
TGI (DLD-1 colon): > 100 µM | TGI (DMS 114 small cell lung): > 100 µM | TGI (DMS 273 small cell lung): > 100 µM | TGI (KM20L2 colon): > 100 µM | TGI (LXFL 529 NSCLC): > 100 µM | TGI (M19-MEL melanoma): > 100 µM | TGI (SR leukemia): > 100 µM | TGI (XF 498 CNS): > 100 µM

CC(C)=CCN1CC(C)C(=O)Nc2cc(Cl)ccc21 (centres undefined)
TGI (RXF 393 renal): > 100 µM | TGI (SR leukemia): > 100 µM

COc1cc2oc(-c3ccc(O)cc3)c(OC3OC(C)C(O)C(O)C3O)c(=O)c2c(O)c1OC (centres undefined)
TGI (RXF 393 renal): > 100 µM | TGI (SR leukemia): > 100 µM

Cc1cc(=O)cc2sc3c(C)cccc3nc1-2
TGI (DLD-1 colon): 46.1 µM | TGI (DMS 273 small cell lung): > 100 µM | TGI (HOP-18 NSCLC): > 100 µM | TGI (LXFL 529 NSCLC): 32.9 µM | TGI (M19-MEL melanoma): 36.5 µM | TGI (RXF 393 renal): > 100 µM | TGI (RXF-631 renal): > 100 µM | TGI (SNB-78 CNS): > 100 µM | TGI (SR leukemia): > 100 µM

O=c1oc2ccccc2c(O)c1C(c1cc(OCc2ccccc2)cc(OCc2ccccc2)c1)c1c(O)c2ccccc2oc1=O
TGI (RXF 393 renal): > 52 µM | TGI (SR leukemia): 15 µM

O=c1c2c3ccccc3[nH]c2c2cccc3c2n1CCC3
TGI (RXF 393 renal): > 100 µM | TGI (SR leukemia): 67.5 µM

COC(=O)C(C#N)=C1c2ccccc2Oc2ccccc21
TGI (DLD-1 colon): > 100 µM | TGI (DMS 114 small cell lung): > 100 µM | TGI (DMS 273 small cell lung): > 100 µM | TGI (KM20L2 colon): > 100 µM | TGI (LXFL 529 NSCLC): 94.8 µM | TGI (M19-MEL melanoma): > 100 µM | TGI (RXF 393 renal): > 100 µM | TGI (SNB-78 CNS): > 100 µM | TGI (XF 498 CNS): > 100 µM

Cc1ccccc1C1OC1C(=O)c1ccccc1N (centres undefined)
TGI (RXF 393 renal): > 100 µM | TGI (SR leukemia): > 100 µM

O=C1NC(c2ccc(O)cc2)C2CCC1C2 (centres undefined)
TGI (DLD-1 colon): > 100 µM | TGI (DMS 114 small cell lung): > 100 µM | TGI (KM20L2 colon): > 100 µM | TGI (LXFL 529 NSCLC): > 100 µM | TGI (M19-MEL melanoma): > 100 µM | TGI (SNB-78 CNS): > 100 µM | TGI (SR leukemia): > 100 µM | TGI (XF 498 CNS): > 100 µM

CCCN=C1CC(C)Nc2ccccc2N1 (centres undefined)
TGI (RXF 393 renal): > 100 µM

CC(=O)NC1C(OCc2ccccc2)OC(CO)C(O)C1OCC(=O)N[C@@H](C)C(=O)N[C@H](CCC(=O)NCCNCCNc1c2ccccc2nc2cccc([N+](=O)[O-])c12)C(N)=O (some centres undefined)
TGI (RXF 393 renal): 64 µM | TGI (SR leukemia): > 100 µM

Cc1ccc(N=Nc2c3c(c(O)c4ccccc24)CCC(C)(C)O3)cc1
TGI (RXF 393 renal): > 100 µM | TGI (SR leukemia): 38.8 µM

O=c1[nH]c2nc3ccccc3c(=O)n2/c1=C/c1ccc(O)cc1
TGI (RXF 393 renal): > 100 µM | TGI (SR leukemia): > 100 µM

C=CC(=O)c1ccc2c(c1)OCCOCCOCCOCCOCCO2
TGI (DLD-1 colon): 30.1 µM | TGI (DMS 114 small cell lung): 41 µM | TGI (DMS 273 small cell lung): 29.1 µM | TGI (HOP-18 NSCLC): 30.2 µM | TGI (KM20L2 colon): > 100 µM | TGI (LXFL 529 NSCLC): 30.8 µM | TGI (M19-MEL melanoma): 32.2 µM | TGI (RXF 393 renal): 32.3 µM | TGI (SNB-78 CNS): 35.2 µM | TGI (SR leukemia): > 100 µM | TGI (XF 498 CNS): 28.7 µM

O=C(/C=C/c1ccccc1)/C=C/c1ccccc1O
TGI (DLD-1 colon): 36.9 µM | TGI (DMS 114 small cell lung): 35.3 µM | TGI (HOP-18 NSCLC): 1.76 µM | TGI (KM20L2 colon): 34.8 µM | TGI (LXFL 529 NSCLC): 33.7 µM | TGI (M19-MEL melanoma): 33.6 µM | TGI (RXF 393 renal): 37.3 µM | TGI (SNB-78 CNS): > 100 µM | TGI (SR leukemia): 72.7 µM | TGI (XF 498 CNS): > 100 µM

O=C(/C(=C(/Br)I)c1ccccc1)c1ccccc1
TGI (RXF 393 renal): 31.6 µM | TGI (SR leukemia): > 100 µM

CCN(CC)CCn1c2cc3c(cc2c(=O)c2cccnc21)OCCO3
TGI (RXF 393 renal): > 10 µM | TGI (SR leukemia): > 10 µM

COc1ccc(N2C(=O)C3c4[nH]c5ccc([N+](=O)[O-])cc5c4C4CCC(C(C)(C)C)CC4C3C2=O)cc1 (centres undefined)
TGI (RXF 393 renal): 9.34 µM | TGI (SR leukemia): 8.56 µM

O=C1CC(C(O)CO)CC(=O)N1 (centres undefined)
TGI (SR leukemia): > 100 µM

N#Cc1c(N)[nH]c(=S)c(C#N)c1-c1cccc(Cl)c1
TGI (RXF 393 renal): 46.6 µM | TGI (SR leukemia): 40.6 µM

COc1ccc(-c2c(C#N)c(S)n(C3OC(COC(C)=O)C(OC(C)=O)C(OC(C)=O)C3OC(C)=O)c(=O)c2C#N)cc1 (centres undefined)
TGI (RXF 393 renal): 71.7 µM and 73 µM | GI50 (SR leukemia): 3.43 µM and 17.9 µM | TGI (SR leukemia): > 100 µM and 59.3 µM

c1sc(NC2=NCCO2)c2c1CCCC2
TGI (RXF 393 renal): > 100 µM | TGI (SR leukemia): > 100 µM

CCOP(=O)(OCC)[C@H](O)c1ccsc1
TGI (RXF 393 renal): > 100 µM | TGI (SR leukemia): > 100 µM

COc1ccc(C2C(Cl)C(=O)N2NC(=O)c2ccc(NC(C)=O)cc2)cc1 (centres undefined)
TGI (DLD-1 colon): > 100 µM | TGI (DMS 273 small cell lung): > 100 µM | TGI (KM20L2 colon): > 100 µM | TGI (LXFL 529 NSCLC): > 100 µM | TGI (M19-MEL melanoma): > 100 µM | TGI (RXF 393 renal): > 100 µM | TGI (SNB-78 CNS): > 100 µM | TGI (XF 498 CNS): > 100 µM

COc1ccc(-c2c(C#N)c(N)n(C3OC(CO)C(O)C(O)C3O)c(=S)c2C#N)cc1 (centres undefined)
TGI (RXF 393 renal): > 100 µM | TGI (SR leukemia): > 100 µM

C[C@]12OC[C@H](c3ccccc3)N1C(=O)C1[C@H]2CC12SCCS2 (some centres undefined)
TGI (RXF 393 renal): > 100 µM | TGI (SR leukemia): > 100 µM

Cc1c(S(=O)(=O)c2ccccc2)c(N)n(Cc2ccccc2)c1C
TGI (RXF 393 renal): > 100 µM | TGI (SR leukemia): > 100 µM

Cc1cccc(N2C(=O)C3ON(C(C(N)=O)c4ccccc4)C(c4c5ccccc5c(Cl)c5ccccc45)C3C2=O)c1C (centres undefined)
TGI (RXF 393 renal): 13.5 µM | TGI (SR leukemia): 5.53 µM

CC(C)(C)OC(=O)NC(Cc1ccc(O)cc1)C(=O)NC(CCCCN)C(=O)NC(Cc1ccc(O)cc1)C(=O)NC(CCCCN)C(=O)ON1C(=O)CCC1=O (centres undefined) (Boc-YKYK-OSu; configuration not given here)
TGI (RXF 393 renal): > 100 µM | TGI (SR leukemia): > 100 µM
